Data set [1] has as its system HepG2. Kind of data set: Cytotoxicity against human HepG2 cells at 10 uM after 48 hrs by WST-1 assay relative to control. It is filed as cell-based. The following applies: hepg2, 48 h. Background: Formazan colour is commonly taken as a measure of viable cells.
The subject of data set [2] is HepG2. The data set can be described thus: Cytotoxicity against human HepG2 cells at 100 uM after 48 hrs by WST-1 assay relative to control. It is filed as cell-based. The following applies: hepg2, 48 h.
Data set [3] addresses T1, Polyunsaturated fatty acid 5-lipoxygenase (Homo sapiens) (UniProt P09917).
T1 sequence (whole entry): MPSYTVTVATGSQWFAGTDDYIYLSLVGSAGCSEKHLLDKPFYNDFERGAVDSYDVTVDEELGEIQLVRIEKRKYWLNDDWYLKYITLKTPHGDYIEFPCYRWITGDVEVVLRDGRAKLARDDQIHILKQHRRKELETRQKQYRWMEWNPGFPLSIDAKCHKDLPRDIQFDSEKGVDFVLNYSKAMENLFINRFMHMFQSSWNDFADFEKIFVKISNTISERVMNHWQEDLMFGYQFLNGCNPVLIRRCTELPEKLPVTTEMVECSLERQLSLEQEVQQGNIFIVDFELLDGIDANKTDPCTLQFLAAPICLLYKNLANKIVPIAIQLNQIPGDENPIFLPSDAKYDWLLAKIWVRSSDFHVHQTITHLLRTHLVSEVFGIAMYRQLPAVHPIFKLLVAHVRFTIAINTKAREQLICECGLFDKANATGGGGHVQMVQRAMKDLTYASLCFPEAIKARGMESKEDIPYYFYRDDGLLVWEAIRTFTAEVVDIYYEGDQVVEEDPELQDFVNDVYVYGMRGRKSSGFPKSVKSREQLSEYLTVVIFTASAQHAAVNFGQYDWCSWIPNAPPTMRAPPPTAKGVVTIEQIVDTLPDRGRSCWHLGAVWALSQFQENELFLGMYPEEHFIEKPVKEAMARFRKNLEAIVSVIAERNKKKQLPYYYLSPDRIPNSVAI
Kind of data set: Inhibition of 5-LO in human polymorphonuclear leukocytes using arachidonic acid as substrate at 10 uM preincubated for 15 mins followed by substrate addition measured after 10 mins by HPLC analysis in presence of Ca2+-ionophore A23187. Type of data set: cell-based.

In data set [4] the target is T2, Prostaglandin E synthase (Homo sapiens) (UniProt O14684).
T2 sequence (whole entry): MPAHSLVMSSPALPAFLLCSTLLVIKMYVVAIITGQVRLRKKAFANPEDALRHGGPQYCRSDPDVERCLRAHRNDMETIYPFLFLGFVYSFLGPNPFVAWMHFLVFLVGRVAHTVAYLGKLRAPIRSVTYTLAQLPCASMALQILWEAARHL
The data set can be described thus: Inhibition of mPGES1 mediated PGE2 production in IL-1beta stimulated human A549 cells at 10 uM by RP-HPLC analysis. It is filed as cell-based.

Data set [5] deals with T3, Prostaglandin G/H synthase 2 (Homo sapiens) (UniProt P35354).
T3 sequence (whole entry): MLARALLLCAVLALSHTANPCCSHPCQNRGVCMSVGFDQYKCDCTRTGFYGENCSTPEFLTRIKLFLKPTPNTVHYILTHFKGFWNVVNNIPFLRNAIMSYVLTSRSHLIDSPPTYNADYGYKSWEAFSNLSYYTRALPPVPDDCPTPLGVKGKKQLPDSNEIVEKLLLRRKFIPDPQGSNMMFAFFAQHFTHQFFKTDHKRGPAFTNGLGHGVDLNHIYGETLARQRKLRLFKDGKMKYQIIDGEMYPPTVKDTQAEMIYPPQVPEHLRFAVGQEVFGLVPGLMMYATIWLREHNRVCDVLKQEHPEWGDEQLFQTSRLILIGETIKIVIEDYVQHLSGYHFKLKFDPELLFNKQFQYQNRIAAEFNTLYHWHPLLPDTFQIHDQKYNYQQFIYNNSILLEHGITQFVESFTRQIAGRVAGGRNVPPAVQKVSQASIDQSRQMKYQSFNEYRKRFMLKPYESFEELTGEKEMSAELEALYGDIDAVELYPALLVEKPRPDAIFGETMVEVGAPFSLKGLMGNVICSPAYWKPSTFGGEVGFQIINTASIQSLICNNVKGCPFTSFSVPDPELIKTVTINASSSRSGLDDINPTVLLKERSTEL
The data set can be described thus: Inhibition of recombinant human COX2 using arachidonic acid as substrate up to 10 uM preincubated for 5 mins followed by substrate addition measured after 5 mins.

Another data set concerns HeLa. Kind of data set: Cytotoxicity against human HeLa cells at 60 uM after 48 hrs by WST-1 assay. It is filed as cell-based.
Data set [6] can be described thus: Aqueous solubility of the compound. Type of data set: physicochemical. To be noted: water.
Data set [7] has as its system HepG2. Kind of data set: Cytotoxicity against human HepG2 cells at 30 uM after 48 hrs by WST-1 assay relative to control. It is filed as cell-based. To be noted: hepg2, 48 h.
The target of data set [8] is T4, Prostaglandin G/H synthase 1 (Ovis aries) (UniProt P05979).
T4 sequence (whole entry): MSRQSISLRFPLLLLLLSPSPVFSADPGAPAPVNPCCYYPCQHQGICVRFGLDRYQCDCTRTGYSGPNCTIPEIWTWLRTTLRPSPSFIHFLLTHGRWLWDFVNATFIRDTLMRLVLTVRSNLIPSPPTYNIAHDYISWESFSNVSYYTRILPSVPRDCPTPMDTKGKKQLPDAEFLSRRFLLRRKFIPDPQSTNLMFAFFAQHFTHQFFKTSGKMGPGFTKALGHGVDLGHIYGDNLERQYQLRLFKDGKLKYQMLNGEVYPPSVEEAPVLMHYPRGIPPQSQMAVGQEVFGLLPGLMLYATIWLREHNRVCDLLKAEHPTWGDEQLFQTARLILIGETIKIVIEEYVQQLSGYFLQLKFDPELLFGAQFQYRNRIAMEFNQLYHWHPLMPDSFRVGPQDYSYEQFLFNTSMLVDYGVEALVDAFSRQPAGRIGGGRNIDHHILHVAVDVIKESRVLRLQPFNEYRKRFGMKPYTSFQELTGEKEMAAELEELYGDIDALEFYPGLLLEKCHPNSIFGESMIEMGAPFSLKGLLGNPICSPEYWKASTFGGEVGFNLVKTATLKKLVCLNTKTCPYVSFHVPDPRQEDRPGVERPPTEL
The data set can be described thus: Inhibition of ovine COX1 using arachidonic acid as substrate up to 10 uM preincubated for 5 mins followed by substrate addition measured after 5 mins.

Data set [9] relates to HepG2. Kind of data set: Cytotoxicity against human HepG2 cells at 60 uM after 48 hrs by WST-1 assay relative to control. It is filed as cell-based. To be noted: hepg2, 48 h.
The target of a further data set is T5, Bile acid receptor (Homo sapiens, UniProt Q96RI1).
T5 sequence (Q96RI1 whole entry): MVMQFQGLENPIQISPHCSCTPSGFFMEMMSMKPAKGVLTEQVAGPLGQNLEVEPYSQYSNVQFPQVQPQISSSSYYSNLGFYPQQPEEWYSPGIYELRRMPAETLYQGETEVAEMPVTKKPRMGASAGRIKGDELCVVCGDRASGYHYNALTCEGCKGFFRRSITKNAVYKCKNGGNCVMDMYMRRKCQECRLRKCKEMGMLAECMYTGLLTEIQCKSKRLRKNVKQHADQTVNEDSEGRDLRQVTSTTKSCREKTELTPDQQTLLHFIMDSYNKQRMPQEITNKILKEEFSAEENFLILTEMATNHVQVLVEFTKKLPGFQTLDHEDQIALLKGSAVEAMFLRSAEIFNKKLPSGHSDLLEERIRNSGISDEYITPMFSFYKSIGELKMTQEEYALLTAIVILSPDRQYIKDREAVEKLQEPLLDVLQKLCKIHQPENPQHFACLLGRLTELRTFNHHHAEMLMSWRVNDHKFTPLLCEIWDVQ
Kind of data set: Agonist activity at human FXR expressed in human HeLa cells assessed as transactivation after 24 hrs by luciferase reporter gene assay. It is filed as cell-based. On the technique in general: A reporter such as luciferase makes a cellular process visible.

A short description of data set [10]: Metabolic stability in Sprague-Dawley rat liver microsomes assessed as compound remaining at 10 uM after 30 mins by HPLC analysis. Type of data set: ADME. To be noted: read-out: Stability. (In general: Microsomes from liver hold many membrane-bound enzymes, among them those of drug oxidation.)
Data set [11] addresses T6, Bile acid receptor (Homo sapiens) (UniProt Q96RI1).
T6 sequence (whole entry): T5 sequence (Q96RI1 whole entry)
Kind of data set: Agonist activity at human FXR expressed in human HeLa cells assessed as transactivation after 24 hrs by luciferase reporter gene assay relative to GW4064. It is filed as cell-based.

Data set [12] is described as follows: Metabolic stability in Sprague-Dawley rat liver microsomes assessed as compound remaining at 10 uM after 15 mins by HPLC analysis. Type of data set: ADME. To be noted: read-out: Stability.
Data set [13] in a line: Metabolic stability in Sprague-Dawley rat liver microsomes assessed as compound remaining at 10 uM after 60 mins by HPLC analysis. Type of data set: ADME. To be noted: read-out: Stability.

The structures appear in SMILES notation. ≈ marks a conversion by molar mass, not a printed value. Calls of active or inactive are those of the source. No cut-off for these calls is given here.

Consider one compound from ChEMBL document CHEMBL3259655, “Anthranilic acid derivatives as novel ligands for farnesoid X receptor (FXR)” (Bioorg Med Chem, 2014).

As a reminder, the solubility is how much of the substance goes into solution per volume. Higher therefore signals a readily soluble substance. In general, EC50 refers to the midpoint of the concentration-response curve. For `O=C(O)CCCNC(=O)c1ccccc1NC(=O)c1ccc2ccccc2c1`, the Activity with HepG2 [1] was 92%; in the data set with HepG2 [2], 84%; with HeLa, “Non-toxic”; in the data set on HepG2 [7], 90%; in the data set on HepG2 [9], 81%. The inhibition result in data set [3], in data set [4], in data set [5] and in data set [8] was “inactive” each time. For the same compound, the solubility in data set [6] is 45 µg/mL (≈ 120 µM). Moreover, the EC50 on Bile acid receptor stood at 8.55 µM. The remaining at 0.5 h, 10 µM in data set [10] worked out at 93%. For the same compound, the max activation in data set [11] amounted to 37%. The remaining at 0.25 h, 10 µM in [12] was 93%. Further, the remaining at 1 h, 10 µM in data set [13] was 92%.
